Test results published in ChEMBL document CHEMBL5500412, “Discovery of Highly Selective, Potent, Covalent, and Orally Bioavailable Factor XIIa Inhibitors for the Treatment of Thrombo-Inflammation” (J Med Chem, 2024).
Activity calls are given as the source filed them. The calls are words filed in the database; no cut-off is given here.

What was measured:
[1] = Selectivity index, ratio of IC50 for thrombin (unknown origin) to IC50 for FXIIa (unknown origin)
Plasma [2] = experiment: Anticoagulant activity in human plasma assessed as prolongation of activated partial thromboplastin time at 300 uM incubated for 2 mins by aPTT reagent based assay relative to control; assay type: functional
RAW264.7 [3] = experiment: Antiinflammatory activity in mouse RAW264.7 cells assessed as inhibition of LPS-induced IL-1 beta expression at 10 uM preincubated for 12 hrs followed by LPS stimulation and measured after 12 hrs by real time quantitative RT-PCR assay; assay type: functional, cell-based; conditions: time 24.0 hrs
Mus musculus [4] = experiment: Antithrombotic activity in carrageenan induced thrombosis in male BALB/c mouse model assessed as reduction in tail thrombosis administered as IG dose preadministered with PBS for 7 days followed by carrageenan stimulation on day 7 and measured after 2 days post compound administration; assay type: functional, organism-based; conditions: dose 10-30 mg/kg, time 2.0 day
[5] = Selectivity index, ratio of IC50 for PKal (unknown origin) to IC50 for FXIIa (unknown origin)
Chymotrypsin = Chymotrypsin (Homo sapiens, UniProt Q99895+P17538+P40313+Q6GPI1); experiment: Inhibition of Chymotrypsin (unknown origin) using N-Suc-Ala-Ala-Pro-Phe-pNA as chromogenic substrate incubated for 20 mins followed by substrate addition by spectrophotometric analysis; assay type: protein assay
[6] = Stability of the compound in water under acidic condition at pH 3 measured after 48 hrs; assay type: physicochemical; conditions: buffer, pH 3, 48 h
RAW264.7 [7] = experiment: Antiinflammatory activity in mouse RAW264.7 cells assessed as inhibition of LPS-induced IL-6 expression preincubated for 12 hrs followed by LPS stimulation and measured after 12 hrs by real time quantitative RT-PCR assay; assay type: functional, cell-based; conditions: dose 5-10 µM, time 24.0 hrs
[8] = Selectivity index, ratio of IC50 for FXIa (unknown origin) to IC50 for FXIIa (unknown origin)
RAW264.7 [9] = experiment: Antiinflammatory activity in mouse RAW264.7 cells assessed as inhibition of LPS-induced IL-1 beta expression preincubated for 12 hrs followed by LPS stimulation and measured after 12 hrs by real time quantitative RT-PCR assay; assay type: functional, cell-based; conditions: dose 5-10 µM, time 24.0 hrs
[10] = Selectivity index, ratio of IC50 for FXa (unknown origin) to IC50 for FXIIa (unknown origin)
Mus musculus [11] = experiment: Antiinflammatory activity in carrageenan-induced thrombosis in male BALB/c mouse model assessed as reduction in IL-6 level at 20 mg/kg, po by ELISA method; assay type: functional, organism-based
Plasma [12] = experiment: Anticoagulant activity in mouse plasma at 25 uM measures upto 20 mins by aPTT reagent based analysis; assay type: functional, cell-free
[13] = Selectivity index, ratio of IC50 for tPA (unknown origin) to IC50 for FXIIa (unknown origin)
[14] = Stability of the compound in water at pH 5 to 7 measured after 48 hrs; assay type: physicochemical; conditions: buffer, pH 5, 48 h
Trypsin = Trypsin (Homo sapiens, UniProt P07477+P07478+P35030); experiment: Inhibition of trypsin (unknown origin) using Bz-lle-Glu(gamma-OR)-Gly-Arg-pNA.HCl as chromogenic substrate incubated for 20 mins followed by substrate addition by spectrophotometric analysis; assay type: protein assay
[15] = Stability of the compound in water under […] condition at pH 11 measured after 48 hrs; assay type: physicochemical; conditions: buffer, pH 11, 48 h
Plasma [16] = experiment: Selectivity ratio of anticoagulant activity in non-activated human plasma at 10 to 25 uM measured after 260 mins to anticoagulant activity in non-activated human plasma at 10 to 25 uM measured after 2 mins; assay type: functional; conditions: dose 10-25 µM, 4.333 h
RAW264.7 [17] = experiment: Cytotoxicity against mouse RAW264.7 cells assessed as reduction in cell viability at upto 40 uM by CCK-8 assay; assay type: toxicity, cell-based; conditions: raw264.7, 40 µM
Plasma [18] = experiment: Anticoagulant activity in non-activated human plasma at 10 to 25 uM measured after 260 mins; assay type: functional, cell-free; conditions: dose 10-25 µM
RAW264.7 [19] = experiment: Antiinflammatory activity in mouse RAW264.7 cells assessed as inhibition of LPS-induced IL-6 expression at 10 uM preincubated for 12 hrs followed by LPS stimulation and measured after 12 hrs by real time quantitative RT-PCR assay; assay type: functional, cell-based; conditions: time 24.0 hrs
Plasma [20] = experiment: Anticoagulant activity in human plasma assessed as prolongation of […] time at 300 uM incubated for 2 mins by PT reagent based assay; assay type: functional, cell-free
Plasma [21] = experiment: Anticoagulant activity in human blood plasma at 75 uM measures upto 20 mins by aPTT reagent based analysis; assay type: functional, cell-free
Plasma [22] = experiment: Anticoagulant activity in non-activated human plasma assessed as prolongation of activated partial thromboplastin time measured after 260 mins; assay type: functional; conditions: 4.333 h
Plasminogen = Plasminogen (Homo sapiens, UniProt P00747); experiment: Inhibition of plasmin (unknown origin) using PyroGlu-Phe-Lys-pNA.HCl as chromogenic substrate incubated for 20 mins followed by substrate addition by spectrophotometric analysis
Plasma kallikrein = Plasma kallikrein (Homo sapiens, UniProt P03952); experiment: Inhibition of PKal (unknown origin) using H-D-Pro-Phe-Arg-pNA-2HCl as substrate incubated for 20 mins followed by substrate addition by spectrophotometric analysis
[23] = Selectivity index, ratio of IC50 for plasmin (unknown origin) to IC50 for FXIIa (unknown origin)
[24] = Selectivity index, ratio of IC50 for chymotrypsin (unknown origin) to IC50 for FXIIa (unknown origin)
Mus musculus [25] = experiment: Antiinflammatory activity in carrageenan-induced thrombosis in male BALB/c mouse model assessed as reduction in IL-1 beta level at 20 mg/kg, po by ELISA method; assay type: functional, organism-based
Mus musculus [26] = experiment: Antithrombotic activity in carrageenan induced thrombosis in male BALB/c mouse model assessed as inhibition of tail thrombosis at 20 mg/kg, IG administered for 9 days with carrageenan stimulation on day 7 by H and E staining based analysis; assay type: functional, organism-based; conditions: time 9.0 day
Coagulation factor X = Coagulation factor X (Homo sapiens, UniProt P00742); experiment: Inhibition of FXa (unknown origin) using Z-D-Arg-Gly-Arg-pNA.2HCl as chromogenic substrate incubated for 20 mins followed by substrate addition by spectrophotometric analysis
Mus musculus [27] = experiment: Antithrombotic activity in carrageenan induced thrombosis in male BALB/c mouse model assessed as thrombosis rate at 30 mg/kg, IG preadministered with PBS for 7 days followed by carrageenan stimulation on day 7 and measured after 2 days post compound administration relative to control; assay type: functional; conditions: time 2 day
Mus musculus [28] = experiment: Antithrombotic activity in carrageenan induced thrombosis in male BALB/c mouse model assessed as inhibition of tail thrombosis at 20 to 30 mg/kg, IG preadministered with PBS for 7 days followed by carrageenan stimulation on day 7 and measured after 2 days post compound administration by H and E staining based analysis; assay type: functional, organism-based; conditions: dose 20-30 mg/kg, time 2.0 day
[29] = Selectivity index, ratio of IC50 for trypsin (unknown origin) to IC50 for FXIIa (unknown origin)
Prothrombin = Prothrombin (Homo sapiens, UniProt P00734); experiment: Inhibition of thrombin (unknown origin) using H-D-Phe-Pip-Arg-pNA-2HCl as substrate incubated for 20 mins followed by substrate addition by spectrophotometric analysis
Coagulation factor XI = Coagulation factor XI (Homo sapiens, UniProt P03951); experiment: Inhibition of FXIa (unknown origin) using p-Glu-Pro-Arg-pNA.HCl as chromogenic substrate incubated for 20 mins followed by substrate addition by spectrophotometric analysis
Coagulation factor XI, sequence (P03951 19-387 limits assumed): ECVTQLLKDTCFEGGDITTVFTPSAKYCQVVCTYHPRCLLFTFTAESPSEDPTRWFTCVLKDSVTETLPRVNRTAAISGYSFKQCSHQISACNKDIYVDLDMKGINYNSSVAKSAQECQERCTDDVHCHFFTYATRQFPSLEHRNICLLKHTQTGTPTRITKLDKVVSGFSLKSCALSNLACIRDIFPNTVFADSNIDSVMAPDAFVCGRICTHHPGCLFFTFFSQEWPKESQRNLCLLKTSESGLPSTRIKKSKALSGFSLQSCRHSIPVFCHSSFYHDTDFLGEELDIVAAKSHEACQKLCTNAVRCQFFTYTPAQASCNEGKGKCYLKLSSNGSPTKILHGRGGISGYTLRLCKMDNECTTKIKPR
Coagulation factor XI, sequence (P03951 388-625 limits assumed): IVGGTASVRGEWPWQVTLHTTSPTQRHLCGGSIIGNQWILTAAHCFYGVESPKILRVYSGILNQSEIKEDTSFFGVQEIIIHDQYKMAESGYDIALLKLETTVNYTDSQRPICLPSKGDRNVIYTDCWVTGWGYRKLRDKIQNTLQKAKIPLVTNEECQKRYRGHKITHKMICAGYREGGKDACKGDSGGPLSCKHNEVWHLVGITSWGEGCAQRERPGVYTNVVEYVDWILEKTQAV

Plasminogen, sequence (P00747 97-580 limits assumed): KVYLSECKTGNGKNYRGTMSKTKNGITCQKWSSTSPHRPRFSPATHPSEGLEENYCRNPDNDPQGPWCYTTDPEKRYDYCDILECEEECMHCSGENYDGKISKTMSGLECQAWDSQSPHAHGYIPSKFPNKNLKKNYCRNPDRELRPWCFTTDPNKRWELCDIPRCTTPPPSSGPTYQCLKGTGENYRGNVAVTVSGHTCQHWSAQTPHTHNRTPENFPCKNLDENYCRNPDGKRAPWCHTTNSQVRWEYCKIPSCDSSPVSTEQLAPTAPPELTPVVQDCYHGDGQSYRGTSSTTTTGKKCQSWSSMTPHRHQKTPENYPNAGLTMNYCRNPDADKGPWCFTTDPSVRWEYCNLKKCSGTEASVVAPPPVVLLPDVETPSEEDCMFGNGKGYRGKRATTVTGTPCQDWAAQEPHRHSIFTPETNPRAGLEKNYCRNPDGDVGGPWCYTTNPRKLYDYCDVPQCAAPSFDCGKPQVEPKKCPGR
Plasminogen, sequence (P00747 581-810 limits assumed): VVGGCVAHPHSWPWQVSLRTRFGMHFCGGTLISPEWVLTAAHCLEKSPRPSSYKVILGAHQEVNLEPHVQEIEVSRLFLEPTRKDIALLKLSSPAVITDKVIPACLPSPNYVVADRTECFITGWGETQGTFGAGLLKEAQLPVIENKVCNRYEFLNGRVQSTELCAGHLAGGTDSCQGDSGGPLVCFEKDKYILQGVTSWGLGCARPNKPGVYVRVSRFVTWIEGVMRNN
Plasma kallikrein, sequence (P03952 20-390 limits assumed): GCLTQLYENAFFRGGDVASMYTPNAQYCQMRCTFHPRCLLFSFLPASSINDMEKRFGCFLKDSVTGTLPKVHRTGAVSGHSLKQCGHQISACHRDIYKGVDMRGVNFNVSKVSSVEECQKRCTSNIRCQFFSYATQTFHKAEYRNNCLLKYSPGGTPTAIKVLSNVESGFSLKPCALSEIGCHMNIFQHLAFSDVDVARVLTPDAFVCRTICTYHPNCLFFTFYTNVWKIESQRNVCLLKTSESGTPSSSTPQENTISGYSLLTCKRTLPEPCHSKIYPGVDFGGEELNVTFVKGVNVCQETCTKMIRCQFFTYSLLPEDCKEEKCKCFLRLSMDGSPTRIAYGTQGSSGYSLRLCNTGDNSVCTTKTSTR
Plasma kallikrein, sequence (P03952 391-638 limits assumed): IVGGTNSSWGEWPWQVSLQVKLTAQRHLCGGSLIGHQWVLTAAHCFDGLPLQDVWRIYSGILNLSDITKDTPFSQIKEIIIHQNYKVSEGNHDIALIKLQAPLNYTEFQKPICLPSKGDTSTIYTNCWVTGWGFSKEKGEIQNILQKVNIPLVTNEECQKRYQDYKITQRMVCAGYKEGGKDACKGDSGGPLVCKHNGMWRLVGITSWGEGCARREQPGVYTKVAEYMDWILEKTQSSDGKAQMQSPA
Coagulation factor X, sequence (P00742 41-179 limits assumed): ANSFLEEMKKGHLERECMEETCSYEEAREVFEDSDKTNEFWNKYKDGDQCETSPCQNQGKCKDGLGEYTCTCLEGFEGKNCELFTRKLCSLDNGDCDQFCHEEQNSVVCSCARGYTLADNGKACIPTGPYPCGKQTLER
Coagulation factor X, sequence (P00742 235-488 limits assumed): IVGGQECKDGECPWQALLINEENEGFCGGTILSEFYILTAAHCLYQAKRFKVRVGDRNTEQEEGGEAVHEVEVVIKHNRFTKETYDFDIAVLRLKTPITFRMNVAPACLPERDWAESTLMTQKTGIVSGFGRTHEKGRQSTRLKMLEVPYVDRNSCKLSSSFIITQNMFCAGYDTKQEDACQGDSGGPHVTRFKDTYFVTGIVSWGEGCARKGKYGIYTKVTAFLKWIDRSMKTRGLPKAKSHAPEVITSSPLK

Ratio IC50 [1] | Ratio IC50 [5] | IC50 (Chymotrypsin) [µM] | Stability [6] | Ratio IC50 [8] | Ratio IC50 [10] | Ratio IC50 [13] | Stability [14] | IC50 (Trypsin) [µM] | Stability [15] | SMILES | Activity (Plasma [2]) [%] | Activity (RAW264.7 [3]) | Activity (Mus musculus [4]) | Activity (RAW264.7 [7]) | Activity (RAW264.7 [9]) | Activity (Mus musculus [11]) | Activity (Plasma [12]) | Ratio (Plasma [16]) | Activity (RAW264.7 [17]) | Activity (Plasma [18]) | other results
910 | > 670 | > 25 | Stable | > 670 | > 670 | > 670 | Stable | > 25 | Stable | CC(C)N1CCN(c2ccc(C(=O)n3nc(-c4ccccn4)nc3N)c3ccccc23)CC1 | 542 | Active | Dose-Dependent Effect | Dose-Dependent Effect | Dose-Dependent Effect | Active | Active | 2 | Non-Toxic | Active | Activity (RAW264.7 [19]): Active; Activity (Plasma [20]): inactive; Activity (Plasma [21]): Active; EC1.5 (Plasma [22]): 14 µM; IC50 (Plasminogen): > 25 µM; IC50 (Plasma kallikrein): > 25 µM; Ratio IC50 [23]: > 670; Ratio IC50 [24]: > 670; Activity (Mus musculus [25]): Active; Activity (Mus musculus [26]): Active; IC50 (Coagulation factor X): > 25 µM; Activity (Mus musculus [27]): ~30%; Activity (Mus musculus [28]): Active; Ratio IC50 [29]: > 670; IC50 (Prothrombin): 20 µM; IC50 (Coagulation factor XI): > 25 µM
210 | > 1190 | > 25 | Stable | > 1190 | > 1190 | > 1190 | Stable | > 25 | Stable | CC(C)N1CCCN(c2ccc(C(=O)n3nc(-c4ccccn4)nc3N)c3ccccc23)CC1 | 905 | Active | Dose-Dependent Effect | Dose-Dependent Effect | Dose-Dependent Effect | Active | Active | 2 | Non-Toxic | Active | Activity (RAW264.7 [19]): Active; Activity (Plasma [20]): inactive; Activity (Plasma [21]): Active; EC1.5 (Plasma [22]): 9 µM; IC50 (Plasminogen): > 25 µM; IC50 (Plasma kallikrein): > 25 µM; Ratio IC50 [23]: > 1190; Ratio IC50 [24]: > 1190; Activity (Mus musculus [25]): Active; Activity (Mus musculus [26]): Active; IC50 (Coagulation factor X): > 25 µM; Activity (Mus musculus [27]): ~10%; Activity (Mus musculus [28]): Active; Ratio IC50 [29]: > 1190; IC50 (Prothrombin): 7 µM; IC50 (Coagulation factor XI): > 25 µM
